≈ marks a conversion by molar mass, not a printed value.
Columns and labels:
[1] = system: Saccharomyces cerevisiae; assay: Antifungal activity against recombinant Saccharomyces cerevisiae Y2300 overexpressing ScErg11 assessed as inhibition of fungal growth incubated for 48 hrs by microbroth dilution method; format: functional
[2] = system: Saccharomyces cerevisiae; assay: Antifungal activity against recombinant Saccharomyces cerevisiae Y525 overexpressing CaMdr1 assessed as inhibition of fungal growth incubated for 48 hrs by microbroth dilution method; format: functional
[3] = system: Saccharomyces cerevisiae; assay: Antifungal activity against recombinant Saccharomyces cerevisiae Y570 overexpressing CaCdr1 assessed as inhibition of fungal growth incubated for 48 hrs by microbroth dilution method; format: functional
[4] = system: Saccharomyces cerevisiae; assay: Antifungal activity against recombinant Saccharomyces cerevisiae Y2374 overexpressing CgErg11 assessed as inhibition of fungal growth incubated for 48 hrs by microbroth dilution method; format: functional
[5] = system: Saccharomyces cerevisiae; assay: Antifungal activity against recombinant Saccharomyces cerevisiae Y2716 overexpressing CpErg11 Y132F CpCpr assessed as inhibition of fungal growth incubated for 48 hrs by microbroth dilution method; format: functional
[6] = system: Saccharomyces cerevisiae; assay: Antifungal activity against recombinant Saccharomyces cerevisiae Y2411 overexpressing ScErg11 assessed as inhibition of fungal growth incubated for 48 hrs by microbroth dilution method; format: functional
[7] = system: Saccharomyces cerevisiae; assay: Antifungal activity against recombinant Saccharomyces cerevisiae Y2513 overexpressing ScErg11 Y140H assessed as inhibition of fungal growth incubated for 48 hrs by microbroth dilution method; format: functional
[8] = system: Saccharomyces cerevisiae; assay: Antifungal activity against recombinant Saccharomyces cerevisiae Y2462 overexpressing ScErg11 ScNcp1 assessed as inhibition of fungal growth incubated for 48 hrs by microbroth dilution method; format: functional
[9] = system: Saccharomyces cerevisiae; assay: Antifungal activity against recombinant Saccharomyces cerevisiae Y2721 overexpressing CpErg11 CpCpr assessed as inhibition of fungal growth incubated for 48 hrs by microbroth dilution method; format: functional
[10] = system: Saccharomyces cerevisiae; assay: Antifungal activity against recombinant Saccharomyces cerevisiae Y2459 overexpressing CaErg11 CaCpr assessed as inhibition of fungal growth incubated for 48 hrs by microbroth dilution method; format: functional
[11] = system: Saccharomyces cerevisiae; assay: Antifungal activity against recombinant Saccharomyces cerevisiae Y2301 overexpressing ScErg11 Y140F assessed as inhibition of fungal growth incubated for 48 hrs by microbroth dilution method; format: functional
[12] = system: [Candida] auris; assay: Antifungal activity against fluconazole-resistant Candida auris 919 assessed as inhibition of fungal growth incubated for 48 hrs by microbroth dilution method; format: functional; conditions: Candidozyma auris
[13] = system: [Candida] auris; assay: Antifungal activity against fluconazole-resistant Candida auris 891 assessed as inhibition of fungal growth incubated for 48 hrs by microbroth dilution method; format: functional; conditions: Candidozyma auris
[14] = system: Candida albicans; assay: Antifungal activity against Candida albicans SC5314 assessed as inhibition of fungal growth incubated for 48 hrs by microbroth dilution method; format: functional
[15] = system: Aspergillus fumigatus; assay: Antifungal activity against Aspergillus fumigatus 7544 assessed as inhibition of fungal growth incubated for 72 hrs by microbroth dilution method; format: functional
[16] = system: [Candida] auris; assay: Antifungal activity against fluconazole-resistant Candida auris 918 assessed as inhibition of fungal growth incubated for 48 hrs by microbroth dilution method; format: functional; conditions: Candidozyma auris
[17] = system: Candida albicans; assay: Antifungal activity against fluconazole-resistant Candida albicans 904 assessed as inhibition of fungal growth incubated for 48 hrs by microbroth dilution method; format: functional
[18] = system: Candida tropicalis; assay: Antifungal activity against Candida tropicalis 8915 assessed as inhibition of fungal growth incubated for 48 hrs by microbroth dilution method; format: functional
[19] = system: Candida albicans; assay: Antifungal activity against fluconazole-resistant Candida albicans 901 assessed as inhibition of fungal growth incubated for 48 hrs by microbroth dilution method; format: functional
[20] = system: Nakaseomyces glabratus; assay: Antifungal activity against Candida glabrata 537 assessed as inhibition of fungal growth incubated for 48 hrs by microbroth dilution method; format: functional
[21] = system: Cryptococcus neoformans; assay: Antifungal activity against Cryptococcus neoformans 32,609 assessed as inhibition of fungal growth incubated for 72 hrs by microbroth dilution method; format: functional
[22] = system: Candida albicans; assay: Antifungal activity against Candida albicans 10231 assessed as inhibition of fungal growth incubated for 48 hrs by microbroth dilution method; format: functional
[23] = system: Pichia kudriavzevii; assay: Antifungal activity against Candida krusei 4996 assessed as inhibition of fungal growth incubated for 48 hrs by microbroth dilution method; format: functional
[24] = system: Candida parapsilosis; assay: Antifungal activity against Candida parapsilosis 22019 assessed as inhibition of fungal growth incubated for 48 hrs by microbroth dilution method; format: functional; conditions: Lodderomyces parapsilosis
[25] = Metabolic stability in human liver microsomes assessed as intrinsic clearance at 1 uM preincubated for 10 mins followed by NADPH addition and measured upto 60 mins by LC-MS/MS analysis; format: ADME, Microsome; conditions: time < 70 min, read-out: CLH
[26] = Metabolic stability in human liver microsomes assessed as half life at 1 uM preincubated for 10 mins followed by NADPH addition and measured upto 60 mins by LC-MS/MS analysis; format: ADME, Microsome; conditions: time < 70 min

| SMILES | MIC [1] [µg/mL] | MIC [2] [µg/mL] | MIC [3] [µg/mL] | MIC [4] [µg/mL] | MIC [5] [µg/mL] | MIC [6] [µg/mL] | MIC [7] [µg/mL] | MIC [8] [µg/mL] | MIC [9] [µg/mL] | MIC [10] [µg/mL] | MIC [11] [µg/mL] | further results |
| --- | --- | --- | --- | --- | --- | --- | --- | --- | --- | --- | --- | --- |
| CC(=O)N1CCN(c2ccc(OCC3COC(Cn4ccnc4)(c4ccc(Cl)cc4Cl)O3)cc2)CC1 (configuration not stated) [KETOCONAZOLE] | 2 | 1 | > 64 | 1 | 2 | 0.5 | 1 | 1 | 0.5 | 0.5 | 2 | – |
| C[C@@H](c1nc(-c2ccc(C#N)cc2)cs1)[C@](O)(Cn1cncn1)c1ccc(F)cc1F [RAVUCONAZOLE] | 0.063 | 0.125 | 32 | 0.063 | 0.031 | 0.008 | 0.016 | 0.063 | 0.031 | 0.016 | 0.063 | MIC [12]: 1 µg/mL (≈ 2.29 µM); MIC [13]: 1 µg/mL (≈ 2.29 µM); MIC [14]: 0.25 µg/mL (≈ 0.571 µM); MIC [15]: 0.25 µg/mL (≈ 0.571 µM); MIC [16]: 1 µg/mL (≈ 2.29 µM); MIC [17]: 16 µg/mL (≈ 36.6 µM); MIC [18]: 4 µg/mL (≈ 9.14 µM); MIC [19]: 16 µg/mL (≈ 36.6 µM); MIC [20]: ≤ 0.125 µg/mL; MIC [21]: ≤ 0.125 µg/mL; MIC [22]: 16 µg/mL (≈ 36.6 µM); MIC [23]: ≤ 0.125 µg/mL; MIC [24]: ≤ 0.125 µg/mL |
| Cc1ncc2n1-c1ccc(Cl)cc1C(c1ccccc1F)=NC2 [MIDAZOLAM] | – | – | – | – | – | – | – | – | – | – | – | microsomal CLint at 1 µM [25]: 297 µL/min/mg; half-life at 1 µM [26]: 4.67 min |

From ChEMBL document CHEMBL5620353, “Novel antifungal triazoles with alkynyl-methoxyl side chains: Design, synthesis, and biological activity evaluation” (Eur J Med Chem, 2023)
